target: T1, ligand binding domain of human RORγ (A262-S507) (Homo sapiens, UniProt P51449); test: General RORγ SPA binding assay (competition with [3H]25-hydroxycholesterol); conditions: RORγ SPA binding assay, inhibition of [3H]25-hydroxycholesterol binding; read-out: IC50
T1 construct: made in house; host or cells: E. coli
T1 sequence (P51449 262-507): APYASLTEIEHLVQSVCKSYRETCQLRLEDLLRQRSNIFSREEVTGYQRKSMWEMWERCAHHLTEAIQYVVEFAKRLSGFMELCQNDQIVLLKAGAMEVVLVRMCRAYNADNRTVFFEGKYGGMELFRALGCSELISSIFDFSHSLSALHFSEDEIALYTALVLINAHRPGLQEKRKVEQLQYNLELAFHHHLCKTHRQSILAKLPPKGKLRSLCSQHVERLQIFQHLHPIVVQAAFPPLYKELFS
How it was run: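 N-terminally His-tagged protein was expressed in E. coli and nickel-purified. Then 50 nM protein was preincubated with compound for 15 min at room temperature in PBS with 0.5% fatty acid free BSA, followed by radioligand for 15 min and copper His-tag SPA beads for 30 min. IC50 came from percent inhibition of binding.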

Row | Structure (SMILES) | IC50 [nM]
1 | Cc1cc(C)cc(CNC(=O)c2c(C(C)C)nc(C)nc2C2CCN(C(=O)Cc3c(F)cccc3F)CC2)c1 [Compound A84, 4-(1-(2-(2,6-difluorophenyl)acetyl)piperidin-4-yl)-N-(3,5-dimethylbenzyl)-6-isopropyl-2-methylpyrimidine-5-carboxamide] | 1650
2 | CSc1ncc(C(=O)NCc2ccc(Cl)c(Cl)c2)c(C2CCN(C(=O)Cc3c(F)cccc3F)CC2)n1 [Compound A85, N-(3,4-dichlorobenzyl)-4-(1-(2-(2,6-difluorophenyl)acetyl)piperidin-4-yl)-2-(methylthio)pyrimidine-5-carboxamide] | 43.8
3 | COc1ncc(C(=O)NCc2ccc(Cl)c(Cl)c2)c(C2CCN(C(=O)Cc3c(F)cccc3F)CC2)n1 [Compound A86, N-(3,4-dichlorobenzyl)-4-(1-(2-(2,6-difluorophenyl)acetyl)piperidin-4-yl)-2-methoxypyrimidine-5-carboxamide] | 7
4 | O=C(NCc1cccc(Cl)c1)c1cnc(NCCO)nc1C1CCN(C(=O)Cc2c(F)cccc2F)CC1 [Compound A87, N-(3-chlorobenzyl)-4-(1-(2-(2,6-difluorophenyl)acetyl)piperidin-4-yl)-2-((2-hydroxyethyl)amino)pyrimidine-5-carboxamide] | 1.7
5 | CCNc1ncc(C(=O)NCc2cccc(Cl)c2)c(C2CCN(C(=O)Cc3c(F)cccc3F)CC2)n1 [Compound A91, N-(3-chlorobenzyl)-4-(1-(2-(2,6-difluorophenyl)acetyl)piperidin-4-yl)-2-(ethylamino)pyrimidine-5-carboxamide] | 6.7
6 | CC(C)Nc1ncc(C(=O)NCc2cccc(Cl)c2)c(C2CCN(C(=O)Cc3c(F)cccc3F)CC2)n1 [Compound A94, N-(3-chlorobenzyl)-4-(1-(2-(2,6-difluorophenyl)acetyl)piperidin-4-yl)-2-(isopropylamino)pyrimidine-5-carboxamide] | 25.4
7 | NCCNc1ncc(C(=O)NCc2cccc(Cl)c2)c(C2CCN(C(=O)Cc3c(F)cccc3F)CC2)n1 [Compound A96, 2-((2-aminoethyl)amino)-N-(3-chlorobenzyl)-4-(1-(2-(2,6-difluorophenyl)acetyl)piperidin-4-yl)pyrimidine-5-carboxamide] | 202
8 | CN(C)CCNc1ncc(C(=O)NCc2cccc(Cl)c2)c(C2CCN(C(=O)Cc3c(F)cccc3F)CC2)n1 [Compound A97, N-(3-chlorobenzyl)-4-(1-(2-(2,6-difluorophenyl)acetyl)piperidin-4-yl)-2-((2-(dimethylamino)ethyl)amino) pyrimidine-5-carboxamide] | 290
9 | Cc1cc(C)cc(CNC(=O)c2cnc(C)nc2C2CCN(CCc3c(F)cccc3F)CC2)c1 [Compound A99, 4-(1-(2,6-difluorophenethyl)piperidin-4-yl)-N-(3,5-dimethylbenzyl)-2-methylpyrimidine-5-carboxamide] | 58
10 | Cc1cc(C)cc(CNC(=O)c2cnc(C)nc2C2CCN(CCc3ccccc3Cl)CC2)c1 [Compound A100, 4-(1-(2-chlorophenethyl)piperidin-4-yl)-N-(3,5-dimethylbenzyl)-2-methylpyrimidine-5-carboxamide] | 433
11 | Cc1cc(C)cc(CNC(=O)c2cnc(C)nc2C2CCN(CCc3ccccc3)CC2)c1 [Compound A101, N-(3,5-dimethylbenzyl)-2-methyl-4-(1-phenethylpiperidin-4-yl)pyrimidine-5-carboxamide] | 634
12 | Cc1ncc(C(=O)NCc2cccc(Cl)c2)c(C2(C)CCN(C(=O)Cc3c(F)cccc3F)CC2)n1 [Compound A102, N-(3-Chlorobenzyl)-4-(1-(2-(2,6-difluorophenyl)acetyl)-4-methylpiperidin-4-yl)-2-methylpyrimidine-5-carb oxamide] | 1730
13 | Cc1ncc(C(=O)NCc2cccc(Cl)c2)c(C2(F)CCN(C(=O)Cc3c(F)cccc3F)CC2)n1 [Compound A103, N-(3-Chlorobenzyl)-4-(1-(2-(2,6-difluorophenyl)acetyl)-4-fluoropiperidin-4-yl)-2-methylpyrimidine-5-carboxamide] | 3.4
14 | Cc1ncc(C(=O)NCc2cccc(C(F)(F)F)n2)c(C2(F)CCN(C(=O)Cc3c(F)cccc3F)CC2)n1 [Compound A104, 4-(1-(2-(2,6-difluorophenyl)acetyl)-4-fluoropiperidin-4-yl)-2-methyl-N-((6-(trifluoromethyl)pyridin-2-yl)methyl)pyrimidine-5-carboxamide] | 231
15 | Cc1cc(C)cc(CNC(=O)c2cnc(C)nc2C2(F)CCN(C(=O)Cc3c(F)cccc3F)CC2)c1 [Compound A105, 4-(1-(2-(2,6-difluorophenyl)acetyl)-4-fluoropiperidin-4-yl)-N-(3,5-dimethylbenzyl)-2-methylpyrimidine-5-carboxamide] | 551
16 | Cc1cc(C)cc(CNC(=O)c2cnc(C)nc2C2CCN(C(=O)Nc3ccccc3F)CC2)c1 [Compound A106, N-(3,5-Dimethylbenzyl)-4-(1-((2-fluorophenyl)carbamoyl)piperidin-4-yl)-2-methylpyrimidine-5-carboxamide] | 270
17 | Cc1cc(C)cc(CNC(=O)c2cnc(C)nc2C2CCN(C(=O)Nc3c(F)cccc3F)CC2)c1 [Compound A107, 4-(1-((2,6-Difluorophenyl)carbamoyl)piperidin-4-yl)-N-(3,5-dimethylbenzyl)-2-methylpyrimidine-5-carboxamide] | 12.1
18 | CNc1nc(C)nc(C2CCN(C(=O)Cc3c(F)cccc3F)CC2)c1C(=O)NCc1cc(C)cc(C)c1 [Compound A108, 4-(1-(2-(2,6-Difluorophenyl)acetyl)piperidin-4-yl)-N-(3,5-dimethylbenzyl)-2-methyl-6-(methylamino)pyrimidine-5-carboxamide] | 21.7
19 | Cc1ncc(C(=O)NC(CO)c2cccc(Cl)c2)c(C2CCN(C(=O)Cc3c(F)cccc3F)CC2)n1 (centres unmarked) [Compound A110, N-(1-(3-Chlorophenyl)-2-hydroxyethyl)-4-(1-(2-(2,6-difluorophenyl)acetyl)piperidin-4-yl)-2-methylpyrimidine-5-carboxamide] | 1440

Results, then the compound that gave them:

Row | IC50 [nM] | Structure (SMILES)
20 | 9.8 | Cc1cc(C)cc(CNC(=O)c2c(C)nc(C)nc2C2CCN(C(=O)Cc3c(F)cccc3F)CC2)c1 [Compound A80, 4-(1-(2-(2,6-difluorophenyl)acetyl)piperidin-4-yl)-N-(3,5-dimethylbenzyl)-2,6-dimethylpyrimidine-5-carboxamide]
21 | 5.2 | Cc1nc(C)c(C(=O)NCc2cccc(Cl)c2)c(C2CCN(C(=O)Cc3c(F)cccc3F)CC2)n1 [Compound A81]
22 | 6.2 | Cc1nc(C)c(C(=O)NCc2cccc(C(F)(F)F)n2)c(C2CCN(C(=O)Cc3c(F)cccc3F)CC2)n1 [Compound A82, 4-(1-(2-(2,6-difluorophenyl)acetyl)piperidin-4-yl)-2,6-dimethyl-N-((6-(trifluoromethyl)pyridin-2-yl)methyl)pyrimidine-5-carboxamide]
23 | 45.8 | Cc1nc(C)c(C(=O)NCc2ccnc(C#N)c2)c(C2CCN(C(=O)Cc3c(F)cccc3F)CC2)n1 [Compound A83, N-((2-cyanopyridin-4-yl)methyl)-4-(1-(2-(2,6-difluorophenyl)acetyl)piperidin-4-yl)-2,6-dimethylpyrimidine-5-carboxamide]
24 | 5.4 | CN(C)c1ncc(C(=O)NCc2cccc(Cl)c2)c(C2CCN(C(=O)Cc3c(F)cccc3F)CC2)n1 [Compound A88, N-(3-chlorobenzl)-4-(1-(2-(2,6-difluorophenyl)acetyl)piperidin-4-yl)-2-(dimethylamino)pyrimidine-5-carboxamide]
25 | 5.8 | Nc1ncc(C(=O)NCc2cccc(Cl)c2)c(C2CCN(C(=O)Cc3c(F)cccc3F)CC2)n1 [Compound A89, 2-amino-N-(3-chlorobenzyl)-4-(1-(2-(2,6-difluorophenyl)acetyl)piperidin-4-yl)pyrimidine-5-carboxamide]
26 | 6.3 | CNc1ncc(C(=O)NCc2cccc(Cl)c2)c(C2CCN(C(=O)Cc3c(F)cccc3F)CC2)n1 [Compound A90, N-(3-chlorobenzyl)-4-(1-(2-(2,6-difluorophenyl)acetyl)piperidin-4-yl)-2-(methylamino)pyrimidine-5-carboxamide]
27 | 10 | COc1ncc(C(=O)NCc2cccc(Cl)c2)c(C2CCN(C(=O)Cc3c(F)cccc3F)CC2)n1 [Compound A92, N-(3-chlorobenzyl)-4-(1-(2-(2,6-difluorophenyl)acetyl)piperidin-4-yl)-2-methoxypyrimidine-5-carboxamide]
28 | 16 | CCOc1ncc(C(=O)NCc2cccc(Cl)c2)c(C2CCN(C(=O)Cc3c(F)cccc3F)CC2)n1 [Compound A93, N-(3-chlorobenzyl)-4-(1-(2-(2,6-difluorophenyl)acetyl)piperidin-4-yl)-2-ethoxypyrimidine-5-carboxamide]
29 | 175 | CC(C)Oc1ncc(C(=O)NCc2cccc(Cl)c2)c(C2CCN(C(=O)Cc3c(F)cccc3F)CC2)n1 [Compound A95, N-(3-chlorobenzyl)-4-(1-(2-(2,6-difluorophenyl)acetyl)piperidin-4-yl)-2-isopropoxypyrimidine-5-carboxamide]
30 | 398 | O=C(NCc1cccc(Cl)c1)c1cnc(O)nc1C1CCN(C(=O)Cc2c(F)cccc2F)CC1 [Compound A98, N-(3-chlorobenzyl)-4-(1-(2-(2,6-difluorophenyl)acetyl)piperidin-4-yl)-2-hydroxypyrimidine-5-carboxamide]
31 | 7.3 | CNc1nc(C)nc(C2CCN(C(=O)Cc3c(F)cccc3F)CC2)c1C(=O)NCc1cccc(Cl)c1 [Compound A109]
32 | 9.8 | COc1nc(C)nc(C2CCN(C(=O)Cc3c(F)cccc3F)CC2)c1C(=O)NCc1cccc(Cl)c1 [Compound A111, N-(3-Chlorobenzyl)-4-(1-(2-(2,6-difluorophenyl)acetyl)piperidin-4-yl)-6-methoxy-2-methylpyrimidine-5-carboxamide]

— patent US10035790B2, “RORγ modulators” (BRISTOL-MYERS SQUIBB COMPANY, priority 2012, dated 2018)
